Reference: patent US9404933B2, “Methods for determining patient response to anti-platelet aggregation therapy” (INVITROX, INC., priority 2011, dated 2016)
Read-outs that look alike come from different tables or passages of the source.

Assays:
[1] = system: ADP-induced platelet aggregation; conditions: cited from earlier work; for inhibition of platelet aggregation: patients with ischaemic heart disease, measured at 4 min after addition of 10 μM ADP
human platelets = assay: Focused light scattering size distribution of platelets and microparticles after activation; type: cell-based; conditions: normal resting human platelets versus activated; FIG. 8 / FIG. 9
Description: FIG. 8 is a chart showing the result of the activation of platelets using thrombin receptor activating peptide (TRAP), where platelets are enlarged when activated, and also give off microparticles (MPs).
FIG. 9 is a chart showing the result of the activation of platelets using a calcium ionophore, which destroys platelets, and also causes the platelets to give off microparticles (MPs). Treated and untreated platelet size distributions are shown. What is observed is as the number of platelets decreases, the number of MPs increases.
The ionophore basically destroys the platelet to produce many more MPs. Treated and untreated platelet size distributions are shown. What is observed is as the number of platelets decreases, the number of MPs increases.

[2] = in vivo; cited from earlier work
[3] = system: P2Y12-dependent platelet function; conditions: added in vitro to blood from clopidogrel treated patients; cited from earlier work

COC(=O)[C@H](c1ccccc1Cl)N1CCc2sccc2C1 [Plavix, clopidogrel bisulfate]
delayed onset of action ([1]; loading dose of 300-600 mg): two to five | inhibition of platelet aggregation ([1]; 4 to 7 days treatment): approximately 60%

CC(=O)Oc1cc2c(s1)CCN(C(C(=O)C1CC1)c1ccccc1F)C2 (stereo not drawn) [Prasugrel, 2-acetoxy-5-[alpha-cyclopropylcarbonyl-2-fluorobenzyl]-4,5,6,7-tetrahydrothieno[3,2-c]pyridine]
inhibition of ADP-induced platelet aggregation ([1]; cross-over study, 60 mg loading dose, also in subjects who responded poorly to a standard loading dose of Clopidogrel): rapid and highgrade, irreversible inhibition

CNc1ccc2oc(C[C@H]3O[C@@]4(CC[C@H]3C)O[C@H]([C@H](C)C(=O)c3ccc[nH]3)[C@H](C)C[C@H]4C)nc2c1C(=O)O [calcium ionophore]
microparticles (MPs) formed on activation of platelets (human platelets): many more MPs

CSCCNc1nc(SCCC(F)(F)F)nc2c1ncn2[C@@H]1O[C@H](COP(=O)(O)OP(=O)(O)C(Cl)(Cl)P(=O)(O)O)[C@@H](O)[C@H]1O [cangrelor]
inhibition of platelet aggregation ([1]; infusion at 2 and 4 μg/mL/min): near complete inhibition | half-life [2]: 2.6 min | inhibition of P2Y12-dependent platelet function [3]: near complete inhibition
